From BindingDB's records for patent US20250163061 (Bala Therapeutics, 2025)

Molecular target: T1, Menin (Homo sapiens, UniProt O00255)
T1 sequence (O00255 whole entry): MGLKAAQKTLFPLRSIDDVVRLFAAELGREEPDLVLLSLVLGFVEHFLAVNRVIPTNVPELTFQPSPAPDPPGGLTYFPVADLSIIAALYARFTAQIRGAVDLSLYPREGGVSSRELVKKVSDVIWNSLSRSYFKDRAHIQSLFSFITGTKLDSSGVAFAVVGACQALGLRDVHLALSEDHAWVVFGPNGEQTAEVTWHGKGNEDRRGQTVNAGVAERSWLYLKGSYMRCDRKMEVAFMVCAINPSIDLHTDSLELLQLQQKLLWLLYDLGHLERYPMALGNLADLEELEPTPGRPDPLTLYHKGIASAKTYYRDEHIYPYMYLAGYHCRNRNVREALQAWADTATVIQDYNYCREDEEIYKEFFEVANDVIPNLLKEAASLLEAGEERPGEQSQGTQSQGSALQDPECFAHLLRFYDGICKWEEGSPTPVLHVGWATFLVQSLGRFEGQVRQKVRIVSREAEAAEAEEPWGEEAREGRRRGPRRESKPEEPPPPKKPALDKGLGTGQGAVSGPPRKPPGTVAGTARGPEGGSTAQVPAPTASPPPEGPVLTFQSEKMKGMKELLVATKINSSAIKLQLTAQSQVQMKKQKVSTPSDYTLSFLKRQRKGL
Test: Primary Assay Used to Determine Potency of MEN1 Activity Inhibition
Experimental: Compound activity was determined using recombinant MEN1 protein (Creativebiomart, Cat #MEN1-35H) and a custom fluorescein-labeled MLL4-43 peptide (Eton Bioscience Inc.). Interaction between MEN1 and MLL4-43 in the presence of compounds was determined by fluorescence polarization assay using a Microplate Reader ClarioStar Plus. The reaction was carried out in assay buffer (50 mM TRIS-HCl pH 7.4-7.6, 50 mM NaCl, 1 mM DTT, 0.1 mg/ml BSA). The compounds were dispensed on a 384 well Diamond Well Plate (Axigen, Cat #P-384-120SQ-C-S) using the Biomek FX liquid handling system at 100× solutions of compounds in DMSO. 2×MEN1 mix (final concentration of MEN1 10 nM) was prepared in Assay buffer and 10 μl of mixture per well was added into 384 w white Reaction plate with NBS (Corning, Cat #4513). 10 μl of Assay buffer w/o MEN1 was used for negative control. Plates were centrifuged for 1 min at 100 g. Next step the Compounds were added to Reaction plate using Biomek station via following steps: 3 μl of 100× compounds (in DMSO) were mixed thoroughly with 27 μl Assay Buffer, then 2 μl of this mixture was added to Reaction plate with 10 μl of MEN1 mix. Plates were centrifuged for 1 min at 100 g and incubated for 20 min at room temperature. Next 8 μL of MLL4-43 peptide per well was added to final concentration of MLL 0.5 nM. Plates were incubated for 1 hour at room temperature. Then fluorescence polarization was measured using Microplate Reader.

Row | Structure (SMILES) | EC50 [nM]
1 | Cc1c(CN2CCC3(CC2)CN(c2ncnc4ccc(CC(F)(F)F)cc24)C3)ccc2c1cc(C#N)n2CCN1CCNC1=O | < 75
2 | Cc1c(CN2CCC3(CC2)CN(c2ncnc4ccc(CC(F)(F)F)cc24)C3)ccc2c1cc(C#N)n2CC12CC(NS(C)(=O)=O)(C1)C2 | < 75
3 | N#Cc1cc2cc(CN3CCC4(CC3)CN(c3ncnc5ccc(CC(F)(F)F)cc35)C4)ccc2[nH]1 | < 75
4 | Cc1c(CN2CCC3(CC2)CN(c2ncnc4ccc(OC(F)(F)F)cc24)C3)ccc2c1cc(C#N)n2C[C@@H]1CNC(=O)CO1 [US20250163061, Compound 1] | < 75
5 | Cc1c(CN2CCC3(CC2)CN(c2ncnc4ccc(CC(F)(F)F)cc24)C3)ccc2c1cc(C#N)n2CC1CCNC(=O)CO1 (stereo unspecified) [US20250163061, Compound 2] | < 75
6 | Cc1c(CN2CCC3(CC2)CN(c2ncnc4ccc(CC(F)(F)F)cc24)C3)ccc2c1cc(C#N)n2CC1CNC(=O)NC1 [US20250163061, Compound 4] | < 75
7 | Cc1c(CN2CCC3(CC2)CN(c2ncnc4ccc(CC(F)(F)F)cc24)C3)ccc2c1cc(C#N)n2C(C)CCN1CCN(S(C)(=O)=O)CC1 (stereo unspecified) [US20250163061, Compound 13] | < 75
8 | Cc1c(CN2CCC3(CC2)CN(c2ncnc4ccc(CC(F)(F)F)cc24)C3)ccc2c1cc(C#N)n2Cc1ccc(=O)[nH]c1 [US20250163061, Compound 14] | < 75
9 | Cc1c(CN2CCC3(CC2)CN(c2ncnc4ccc(CC(F)(F)F)cc24)C3)ccc2c1cc(C#N)n2CC1CN(C)C(=O)CO1 (stereo unspecified) [US20250163061, Compound 15] | < 75
10 | COc1cc2c(cc1CN1CCC3(CC1)CN(c1ncnc4ccc(CC(F)(F)F)cc14)C3)cc(C#N)n2CC(C)N1CCN(S(C)(=O)=O)CC1 (stereo unspecified) [US20250163061, Compound 20] | < 75
11 | Cc1c(CN2CCC3(CC2)CN(c2ncnc4ccc(CC(F)(F)F)cc24)C3)ccc2c1cc(C#N)n2CC1CNS(=O)(=O)CO1 (stereo unspecified) [US20250163061, Compound 21] | < 75
12 | Cc1c(CN2CCC3(CC2)CN(c2ncnc4ccc(CC(F)(F)F)cc24)C3)ccc2c1cc(C#N)n2CC1CCNC(=O)C1 (stereo unspecified) [US20250163061, Compound 22] | < 75
13 | Cc1c(CN2CCC3(CC2)CN(c2ncnc4ccc(CC(F)(F)F)cc24)C3)ccc2c1cc(C#N)n2[C@H](C)CN1CCN(S(C)(=O)=O)CC1 [US20250163061, Compound 23] | < 75
14 | CCS(=O)(=O)N1CCN([C@@H](C)Cn2c(C#N)cc3c(C)c(CN4CCC5(CC4)CN(c4ncnc6ccc(CC(F)(F)F)cc46)C5)ccc32)C[C@@H]1C [US20250163061, Compound 26] | < 75

Further lines, results first:

Row | EC50 [nM] | Structure (SMILES)
15 | < 75 | Cc1c(CN2CCC3(CC2)CN(c2ncnc4ccc(CC(F)(F)F)cc24)C3)ccc2c1cc(C#N)n2CC1CCNC(=O)CC1 (stereo unspecified) [US20250163061, Compound 5]
16 | < 75 | Cc1c(CN2CCC3(CC2)CN(c2ncnc4ccc(CC(F)(F)F)cc24)C3)ccc2c1cc(C#N)n2CC1CNC(=O)C(C)O1 (stereo unspecified) [US20250163061, Compound 7]
17 | < 75 | Cc1c(CN2CCC3(CC2)CN(c2ncnc4ccc(CC(F)(F)F)c(F)c24)C3)ccc2c1cc(C#N)n2CC1CNC(=O)CO1 (stereo unspecified) [US20250163061, Compound 12]
18 | < 75 | Cc1c(CN2CCC3(CC2)CN(c2ncnc4ccc(CC(F)(F)F)cc24)C3)ccc2c1cc(C#N)n2CC1CN(C)S(=O)(=O)CO1 (stereo unspecified) [US20250163061, Compound 16]
19 | < 75 | CCCCS(=O)(=O)N1CCN(C(C)Cn2c(C#N)cc3c(C)c(CN4CCC5(CC4)CN(c4ncnc6ccc(CC(F)(F)F)cc46)C5)ccc32)CC1 (stereo unspecified) [US20250163061, Compound 17]
20 | < 75 | Cc1c(CN2CCC3(CC2)CN(c2ncnc4ccc(CC(F)(F)F)cc24)C3)ccc2c1cc(C#N)n2[C@@H](C)CN1CCN(S(C)(=O)=O)CC1 [US20250163061, Compound 24]
21 | < 75 | CCS(=O)(=O)N1CCN([C@H](C)Cn2c(C#N)cc3c(C)c(CN4CCC5(CC4)CN(c4ncnc6ccc(CC(F)(F)F)cc46)C5)ccc32)C[C@@H]1C [US20250163061, Compound 25]
